Measurements reported in patent publication US20240252652A1, “PROTEINS HAVING UNNATURAL AMINO ACIDS AND METHODS OF USE” (The Regents of the University of California, priority 2021, published 2024).

What was measured:
[1] = system: GST dimer; assay: Cross-linking of GST-103SFY-107X in live mammalian cells; assay type: cell-based; settings: HEK293T cells, Western blot
Excerpt: To determine which amino acid residues could react with SFY via proximity-enabled reactivity directly in cells, we coexpressed in E. coli the Z protein and an affibody (Afb) specifically binding it. Based on the crystal structure of Afb-Z complex, we introduced SFY at site 24 of the Z protein and various natural residues at site 7 of the affibody (FIG. 11D), placing the two residues in close proximity upon Afb-Z binding. (Wang et al. J. Am Chem. Soc. 140:4995-4999 (2018)). After expression of Afb(24SFY) and Z(7X) (X=target residue) for 6 h. cells were lysed and analyzed with Western blot under denatured conditions (FIG. 11E). Crosslinking bands corresponding to the adduct of Afb and Z were detected for target residue His. Tyr, and Lys, for both Mm-tRNA^Pyl/MmSFYRS and Ma-tRNA^Pyl/MaSFYRS. We then purified 6×His-tagged Z and Afb proteins from cells and analyzed with SDS-PAGE. Consistently, a protein band corresponding to the cross-linked Z with Afb was clearly observed for Afb-7Lys. Afb-7His, and Afb-7Tyr (FIG. 11E). We further tested if SFY could crosslink with these residues in mammalian cells. […] (Liu et al. J. Am Chem. 141:9458-9462 (2019)). We incorporated SFY at site 103 of GST and mutated residue 107 to various target residues. HEK293T cells expressing these GST mutants were lysed and Western blotted to detect covalent GST dimer formation (FIG. 11G). […]

[2] = system: m^6A modified RNA; assay: GRIP-seq (high-throughput sequencing); assay type: cell-based, human
Excerpt: To detect endogenous m^6A sites in mammalian cells throughout the transcriptome, we developed GRIP-seq through combining GRIP for m^6A with high-throughput sequencing, enabling global identification of m^6A sites in vivo with single-nucleotide resolution (FIG. 12A). In brief. HEK293T cells expressing YTH-397SFY protein (FIG. 19A) were lysed and treated with RNase to partially digest RNA into short fragments. After GRIP for these cell lysates (FIG. 19A), the purified protein-RNA cross-links were treated with proteinase K to release the cross-linked RNA fragments, which were converted into a cDNA library through adapting the enhanced CLIP protocol and then subjected to high-throughput sequencing. All m^6A sites cross-linked by YTH-397SFY protein in vivo would be captured and identified by reverse transcription termination at the upstream cross-linked nucleotides. Van Nostrand et al. Nat. Methods 13:508-514 (2016)
We generated four pairs of GRIP-seq libraries. For each pair, we generated one library for the INPUT sample, which represents the RNA fragments from the whole cell lysate, and one library for the IP sample, which represents the RNA fragments cross-linked with the purified YTH proteins. […] For each library, around 10 to 35 million reads were obtained (data not shown). After removing adaptors, we first mapped the reads to the transcriptome. […]

## COc1ccc(C[C@H](N)C(=O)O)cc1S(=O)(=O)F [SFY, (S)-1-carboxy-2-(3-(fluorosulfonyl)-4-methoxyphenyl)ethan-1-aminium]
[1]
  target residues reacting (covalent GST dimer): react with His. Tyr, and Lys
[2]
  RNA nucleotides cross-linked in vivo: all four RNA nucleotides
